The values below come from patent US7205304B2, “Sulfonyl-Derivatives as novel inhibitors of histone deacetylase” (Janssen Pharmaceutica N.V., priority 2002, dated 2007).

In brackets after ≈: the same amount, converted by molar mass. Bounds are passed on as bounds.

Data set [1] in a line: Kinetic solubility in aqueous media (nephelometry). The conditions noted are these: phosphate citrate buffer, pH 7.4, aqueous buffer, kinetic from dmso stock, phosphate citrate buffer pH 7.4, turbidity of three dilution steps; read-out: Solubility Score. Type of data set: physicochemical. Here is the method: Kinetic solubility in aqueous media measures the ability of a compound to stay in aqueous solution upon dilution (see example C.3).
DMSO-stock solutions are diluted with a single aqueous buffer solvent in 3 consecutive steps. For every dilution turbidity is measured with a nephelometer.
In the first dilution step, 10 μl of a concentrated stock-solution of the active compound, solubilized in DMSO (5 mM), was added to 100 μl phosphate citrate buffer pH 7.4 and mixed. In the second dilution step, an aliquot (20 μl) of the first dilution step was further dispensed in 100 μl phosphate citrate buffer pH 7.4 and mixed. Finally, in the third dilution step, a sample (20 μl) of the second dilution step was further diluted in 100 μl phosphate citrate buffer pH 7.4 and mixed. All dilutions were performed in 96-well plates. Immediately after the last dilution step the turbidity of the three consecutive dilution steps were measured with a nephelometer. Dilution was done in triplicate for each compound to exclude occasional errors. Based on the turbidity measurements a ranking is performed into 3 classes. Compounds with high solubility obtained a score of 3 and for this compounds the first dilution is clear. Compounds with medium solubility obtained a score of 2. For these compounds the first dilution is unclear and the second dilution is clear. […] The solubility of 112 compounds was measured.

The target in data set [2] is histone deacetylase (HeLa nuclear extracts). Description: In vitro assay for inhibition of histone deacetylase. The settings on record: [3H]acetylated histone H4 peptide substrate. Type of data set: biochemical. The method, then: The in vitro assay for inhibition of histone deacetylase (see example C.1) measures the inhibition of HDAC enzymatic activity obtained with the compounds of formula (I).
HeLa nuclear extracts (supplier: Biomol) were incubated at 60 μg/ml with 2×10^−8 M of radiolabeled peptide substrate. As a substrate for measuring HDAC activity a synthetic peptide, i.e. the amino acids 14–21 of histone H4, was used. The substrate is biotinylated at the NH2-terminal part with a 6-aminohexanoic acid spacer, and is protected at the COOH-terminal part by an amide group and specifically [^3H]acetylated at lysine 16. The substrate, biotin-(6-aminohexanoic)Gly-Ala-([^3H]-acetyl-Lys-Arg-His-Arg-Lys-Val-NH2), was added in a buffer containing 25 mM Hepes, 1 M sucrose, 0.1 mg/ml BSA and 0.01% Triton X-100 at pH 7.4. After 30 min the deacetylation reaction was terminated by the addition of HCl and acetic acid. (final concentration 0.035 mM and 3.8 mM respectively). After stopping the reaction, the free ^3H-acetate was extracted with ethylacetate. After mixing and centrifugation, the radioactivity in an aliquot of the upper (organic) phase was counted in a β-counter.
For each experiment, controls (containing HeLa nuclear extract and DMSO without compound), a blank incubation (containing DMSO but no HeLa nuclear extract or compound) and samples (containing compound dissolved in DMSO and HeLa nuclear extract) were run in parallel. In first instance, compounds were tested at a concentration of 10^−5M. […] In each test the blank value was substracted from both the control and the sample values. The control sample represented 100% of substrate deactylation. For each sample the radioactivity was expressed as a percentage of the mean value of the controls. […] Herein the effects of test compounds are expressed as pIC50 (the negative log value of the IC50-value).

In data set [3] the test system is A2780 ovarian carcinoma cells. Description: Antiproliferative activity on A2780 cells (MTT). Type of data set: cell-based, human. The conditions noted are these: Homo sapiens, A2780, 96 h, four days of incubation, read-out: Cellular activity pIC50 (converted). Here is the method: Cellular activity of the compounds of formula (I) was determined on A2780 tumour cells using a colorimetric assay for cell toxicity or survival (Mosmann Tim, Journal of Immunological Methods 65: 55–63, 1983)(see example C.2).
All compounds tested were dissolved in DMSO and further dilutions were made in culture medium. Final DMSO concentrations never exceeded 0.1% (v/v) in cell proliferation assays. Controls contained A2780 cells and DMSO without compound and blanks contained DMSO but no cells. MTT was dissolved at 5 mg/ml in PBS. A glycine buffer comprised of 0.1 M glycine and 0.1 M NaCl buffered to pH 10.5 with NaOH (1 N) was prepared (all reagents were from Merck).
The human A2780 ovarian carcinoma cells (a kind gift from Dr. T. C. Hamilton [Fox Chase Cancer Centre, Pennsylvania, USA]) were cultured in RPMI 1640 medium supplemented with 2 mM L-glutamine, 50 μg/ml gentamicin and 10% fetal calf serum. Cells were routinely kept as monolayer cultures at 37° C. in a humidified 5% CO2 atmosphere. Cells were passaged once a week using a trypsin/EDTA solution at a split ratio of 1:40. All media and supplements were obtained from Life Technologies. Cells were free of mycoplasma contamination as determined using the Gen-Probe Mycoplasma Tissue Culture kit (supplier: BioMérieux).
Cells were seeded in NUNC™ 96-well culture plates (Supplier: Life Technologies) and allowed to adhere to the plastic overnight. Densities used for plating were 1500 cells per well in a total volume of 200 μl medium. After cell adhesion to the plates, medium was changed and drugs and/or solvents were added to a final volume of 200 μl. Following four days of incubation, medium was replaced by 200 μl fresh medium and cell density and viability was assessed using an MTT-based assay. To each well, 25 μl MTT solution was added and the cells were further incubated for 2 hours at 37° C. The medium was then carefully aspirated and the blue MTT-formazan product was solubilized by addition of 25 μl glycine buffer followed by 100 μl of DMSO. […] Within an experiment, the results for each experimental condition are the mean of 3 replicate wells. For initial screening purposes, compounds were tested at a single fixed concentration of 10^−6 M. For active compounds, the experiments were repeated to establish full concentration-response curves. For each experiment, controls (containing no drug) and a blank incubation (containing no cells or drugs) were run in parallel. The blank value was subtracted from all control and sample values. For each sample, the mean value for cell growth (in absorbance units) was expressed as a percentage of the mean value for cell growth of the control. […] Herein the effects of test compounds are expressed as pIC50 (the negative log value of the IC50-value).

With `O=C(NO)c1cnc(N2CCN(S(=O)(=O)c3ccc(-c4ccc[nH]4)cc3)CC2)nc1` [Compound 137], the solubility in data set [1] lay within 75.8 to 454 µM (≈ 32.5 to 195 µg/mL). The “Enzyme activity pIC50” value in data set [2] is listed as 7.169. Besides, in data set [3], the IC50 is 1120 nM.
Take `O=C(NO)c1cnc(N2CCN(S(=O)(=O)c3ccc(-c4ccsc4CN4CCN(CCOCCO)CC4)cc3)CC2)nc1` [Compound 150]: the solubility in data set [1] lay in the range of 75.8 to 454 µM (≈ 47.9 to 287 µg/mL). Besides, in data set [2], the “Enzyme activity pIC50” value is listed as 8.011. Besides, the IC50 in data set [3] was 164 nM.
As to `CC(C)N(C)CCc1cccc(-c2ccc(S(=O)(=O)N3CCN(c4ncc(C(=O)NO)cn4)CC3)cc2)c1` [Compound 173], in data set [1], the solubility is over 454 µM. For the same compound, the “Enzyme activity pIC50” value in data set [2] is 8.423. Further, the IC50 in data set [3] is 70.5 nM.
Take `O=C(NO)c1ccc(N2CCN(S(=O)(=O)c3cccs3)CC2)cc1` [Compound 70]: the solubility in data set [1] is over 454 µM. For the same compound, in data set [2], the “Enzyme activity pIC50” value is given as 5.914. In data set [3], the IC50 was 4060 nM.
As for `COC1CCN(Cc2sccc2-c2ccc(S(=O)(=O)N3CCN(c4ncc(C(=O)NO)cn4)CC3)cc2)CC1` [Compound 149], in data set [1], the solubility fell in the range of 75.8 to 454 µM (≈ 43.4 to 260 µg/mL). Moreover, in data set [2], the “Enzyme activity pIC50” value stood at 8.175. In addition, the IC50 in data set [3] is 144 nM.
For `O=C(NO)c1cnc(N2CCN(S(=O)(=O)c3ccc(-c4ccccc4CN(CCO)CCO)cc3)CC2)nc1` [Compound 160], in data set [1], the solubility lay within 75.8 to 454 µM (≈ 42.2 to 253 µg/mL). The “Enzyme activity pIC50” value in data set [2] is reported as 8.272. The IC50 in data set [3] was 278 nM.
For `Cc1ccccc1-c1ccc(S(=O)(=O)N2CCN(c3ncc(C(=O)NO)cn3)CC2)cc1` [Compound 106], the solubility in data set [1] lay in the range of 75.8 to 454 µM (≈ 34.4 to 206 µg/mL). In addition, the “Enzyme activity pIC50” value in data set [2] was 7.797. In addition, the IC50 in data set [3] was 258 nM.
For `O=C(NO)c1cnc(N2C[C@@H]3C[C@H]2CN3S(=O)(=O)c2ccc3ccccc3c2)nc1` [Compound 114], in data set [1], the solubility is over 454 µM. Besides, the “Enzyme activity pIC50” value in data set [2] is reported as 7.428. In addition, the IC50 in data set [3] is 750 nM.
For `O=C(NO)c1ccc(N2CCN(S(=O)(=O)CCc3cccc4ccccc34)CC2)cc1` [Compound 62], in data set [1], the solubility is under 75.8 µM. The “Enzyme activity pIC50” value in data set [2] was 5.409. Further, the IC50 in data set [3] was 384 nM.
On the same counts, the results for `O=C(NO)c1cnc(N2CCN(S(=O)(=O)c3ccc(-c4ccc(Cl)c(Cl)c4)cc3)CC2)nc1` [Compound 177] are under 75.8 µM, 6.428 and 308 nM.
Taken in the same sequence, the figures for `COc1cccc(-c2ccc(S(=O)(=O)N3CCN(c4ncc(C(=O)NO)cn4)CC3)cc2)c1` [Compound 15] were 75.8 to 454 µM (≈ 35.6 to 213 µg/mL), 7.332 and 107 nM.
For the compound `COc1ccc(-c2ccc(S(=O)(=O)N3CCN(c4ncc(C(=O)NO)cn4)CC3)cc2)c(OC)c1` [Compound 99], in data set [1], the solubility was over 454 µM. The “Enzyme activity pIC50” value in data set [2] is on record as 7.316. Also, the IC50 in data set [3] is 242 nM.
In the case of `Cc1cccc(C)c1-c1ccc(S(=O)(=O)N2CCN(c3ncc(C(=O)NO)cn3)CC2)cc1` [Compound 133], the solubility in data set [1] lay in the range of 75.8 to 454 µM (≈ 35.4 to 213 µg/mL). In addition, the “Enzyme activity pIC50” value in data set [2] was 7.869. Moreover, the IC50 in data set [3] was 1260 nM.
As for `O=C(NO)c1cnc(N2CCN(S(=O)(=O)c3ccc(-c4ccc(Cl)cc4)cc3)CC2)nc1` [Compound 184], the solubility in data set [1] was under 75.8 µM. The “Enzyme activity pIC50” value in data set [2] amounted to 7.22. Also, the IC50 in data set [3] was 62.8 nM.
Regarding `O=C(NO)c1ccc(N2CCN(S(=O)(=O)c3ccc4ccccc4c3)CC2)nc1` [Compound 142], in data set [1], the solubility is over 454 µM. For the same compound, the “Enzyme activity pIC50” value in data set [2] is 8.01. Moreover, the IC50 in data set [3] was 286 nM.
On the same counts, the results for `O=C(NO)c1ccc(N2CCN(S(=O)(=O)Cc3ccccc3)CC2)cc1` [Compound 73] are under 75.8 µM, 6.212 and 3960 nM.
Taken in the same sequence, the figures for `O=C(NO)c1ccc(N2CCN(S(=O)(=O)c3cccc(-c4ccccc4)c3)CC2)cc1` [Compound 83] were under 75.8 µM, 6.157 and 1300 nM.
Turning to `O=C(NO)c1cnc(N2CCN(S(=O)(=O)c3cccs3)CC2)nc1` [Compound 90], the solubility in data set [1] was over 454 µM. Besides, in data set [2], the “Enzyme activity pIC50” value is given as 7.467. The IC50 in data set [3] is 1110 nM.
In the case of `O=C(NO)c1cnc(N2CCN(S(=O)(=O)c3ccc(-c4ccccc4C(F)(F)F)cc3)CC2)nc1` [Compound 110], the solubility in data set [1] fell in the range of 75.8 to 454 µM (≈ 38.5 to 231 µg/mL). For the same compound, the “Enzyme activity pIC50” value in data set [2] is 7.713. The IC50 in data set [3] is 445 nM.
Consider `O=C(NO)c1cnc(N2CCN(S(=O)(=O)c3ccc(-c4ccccc4Cl)cc3)CC2)nc1` [Compound 108], for which the solubility in data set [1] was under 75.8 µM. For the same compound, the “Enzyme activity pIC50” value in data set [2] was 8.117. In data set [3], the IC50 was 209 nM.
On the same counts, the results for `O=C(NO)c1cnc(N2CCN(S(=O)(=O)c3ccc(-c4cccc5c4sc4ccccc45)cc3)CC2)nc1` [Compound 130] are 75.8 to 454 µM (≈ 41.4 to 248 µg/mL), 6.159 and 752 nM.
On the same counts, the results for `COc1ccc(S(=O)(=O)N2CCN(c3ncc(C(=O)NO)cn3)CC2)cc1OC` [Compound 96] are over 454 µM, 7.49 and 335 nM.
Regarding `CN(C)CCN(C)Cc1ccc(-c2ccc(S(=O)(=O)N3CCN(c4ncc(C(=O)NO)cn4)CC3)cc2)cc1` [Compound 164], in data set [1], the solubility lay within 75.8 to 454 µM (≈ 42 to 252 µg/mL). The “Enzyme activity pIC50” value in data set [2] was 8.308. The IC50 in data set [3] is 48.3 nM.
For the compound `Cc1cc(C)cc(-c2ccc(S(=O)(=O)N3CCN(c4ncc(C(=O)NO)cn4)CC3)cc2)c1` [Compound 136], the solubility in data set [1] is under 75.8 µM. The “Enzyme activity pIC50” value in data set [2] is recorded as 7.288. In addition, the IC50 in data set [3] is 513 nM.
`O=C(NO)c1cnc(N2CCN(S(=O)(=O)c3ccc(-c4cccc(CN5CCOCC5)c4)cc3)CC2)nc1` [Compound 167]: the solubility in data set [1] was over 454 µM. Besides, the “Enzyme activity pIC50” value in data set [2] was 7.579. Besides, in data set [3], the IC50 is 108 nM.
On to `CS(=O)(=O)c1ccccc1S(=O)(=O)N1CCN(c2ccc(C(=O)NO)cc2)CC1` [Compound 60], for which the solubility in data set [1] was over 454 µM. Further, in data set [2], the “Enzyme activity pIC50” value came out at 6.247. The IC50 in data set [3] is 4530 nM.

By solubility is commonly meant the concentration that dissolves in the medium under given conditions.
